A short description of assay [1]: Displacement of [125I]Ang 2 from rat liver membrane AT1 receptor after 2 hrs by micro-counter. A general note: Displacement assays read how much labelled ligand stays bound in the presence of the test substance.
Assay [2] can be described thus: Displacement of [125I]Ang 2 from pig uterus membrane AT2 receptor after 1.5 hrs by micro-counter. Details: species or system Sus scrofa.
Assay [3] relates to NG108-15. In words: Induction of neurite outgrowth in mouse/rat NG108-15 cells at 1 nM after 3 days by phase contrast microscopy in presence of PD123,319. The class given is functional, cell-based.
Assay [4] relates to NG108-15. In words: Inhibition of Ang 2-induced neurite outgrowth in mouse/rat NG108-15 cells at 10 nM after 3 days by phase contrast microscopy. It counts as functional, cell-based.
The test system of assay [5] is NG108-15. Nature of the assay: Induction of neurite outgrowth in mouse/rat NG108-15 cells at 10 nM after 3 days by phase contrast microscopy. The class given is functional, cell-based.
The test system of assay [6] is NG108-15. Nature of the assay: Induction of neurite outgrowth in mouse/rat NG108-15 cells at 10 nM after 3 days by phase contrast microscopy in presence of PD123,319. The class given is functional, cell-based.
Assay [7] concerns NG108-15. Nature of the assay: Effect on neurite outgrowth in mouse/rat NG108-15 cells assessed as morphological changes at 10 uM after 3 days by phase contrast microscopy. It counts as functional, cell-based.

Active and inactive are the calls of the source. The rule behind the calls is not given here.

In the case of `CCCCOC(=O)NS(=O)(=O)c1sc(CC(C)C)cc1-c1cccc(CN(CC)C(C)=O)c1`, the Ki in assay [1] was greater than 10000 nM; in assay [2] it was 29 nM.
Consider `CCCCOC(=O)NS(=O)(=O)c1sc(CC(C)C)cc1-c1cccc(CN(C)S(C)(=O)=O)c1`, for which the Ki in assay [1] and in assay [2] was greater than 10000 nM throughout.
On to `CCCCOC(=O)NS(=O)(=O)c1sc(CC(C)C)cc1-c1cccc(CN(C)C(=O)CCCC)c1`, for which the Ki is greater than 10000 nM in assay [1] and 56 nM in assay [2].
As to `CCCCOC(=O)NS(=O)(=O)c1sc(CC(C)C)cc1-c1cccc(CN(C)C(=O)C(=O)OCC)c1`, the figures for the Ki in assay [1] and in assay [2] were greater than 10000 nM and 1.6 nM, respectively. Also, the result in assay [3] was Active.
On to `CCCCOC(=O)NS(=O)(=O)c1sc(CC(C)C)cc1-c1cccc(CN2C(=O)CCC2=O)c1`, for which the inhibitory constant (Ki) was greater than 10000 nM in assay [1] and 147 nM in assay [2].
For `CCCCOC(=O)NS(=O)(=O)c1sc(CC(C)C)cc1-c1cccc(Cn2ccnc2-c2cccs2)c1`, the Ki in assay [1] is greater than 10000 nM; in assay [2], 28 nM.
On the same counts, the results for `CCCCOC(=O)NS(=O)(=O)c1sc(CC(C)C)cc1-c1cccc(Cn2ccnc2CCCC)c1` are greater than 10000 nM and 10 nM.
As to `CCCCOC(=O)NS(=O)(=O)c1sc(CC(C)C)cc1-c1cccc(Cn2cnc3cccnc32)c1`, the Ki was greater than 10000 nM in assay [1] and 66 nM in assay [2].
For the compound `CCCCOC(=O)NS(=O)(=O)c1sc(CC(C)C)cc1-c1cccc(Cn2ccnc2-c2ccccc2)c1`, the values for the Ki in assay [1] and in assay [2] were greater than 10000 nM and 67 nM, respectively.
Turning to `CCCCOC(=O)NS(=O)(=O)c1sc(CC(C)C)cc1-c1cccc(Cn2cnc3ccccc32)c1`, the Ki in assay [1] is greater than 10000 nM; in assay [2], 32 nM.
On the same counts, the results for `CCCCOC(=O)NS(=O)(=O)c1sc(CC(C)C)cc1-c1cccc(CN(Cc2cccnc2)C(C)=O)c1` are greater than 10000 nM and 83 nM.
For the compound `CCCCOC(=O)NS(=O)(=O)c1sc(CC(C)C)cc1-c1cccc(CN(C(=O)c2ccccc2)c2ccc(C)cc2)c1`, the Ki in assay [1] is greater than 10000 nM; in assay [2] it was 46 nM.
Regarding `CCCCOC(=O)NS(=O)(=O)c1sc(CC(C)C)cc1-c1cccc(CCn2ccnc2)c1`, the Ki in assay [1] is greater than 10000 nM; in assay [2], 118 nM.
`CCCCOC(=O)NS(=O)(=O)c1sc(CC(C)C)cc1-c1cccc(Cn2ccnc2C)c1`: the Ki is greater than 10000 nM in assay [1] and 29 nM in assay [2].
With `CCCCOC(=O)NS(=O)(=O)c1sc(CC(C)C)cc1-c1cccc(CN(Cc2cccnc2)C(=O)c2ccccc2)c1`, the Ki in assay [1] is greater than 10000 nM; in assay [2], 47 nM. For the same compound, the inhibition entry in assay [4] was “Active”.
As for `CCCCOC(=O)NS(=O)(=O)c1sc(CC(C)C)cc1-c1cccc(CN(CC(F)(F)F)C(C)=O)c1`, the Ki is greater than 10000 nM in assay [1] and 72 nM in assay [2].
On the same counts, the results for `CCCCOC(=O)NS(=O)(=O)c1sc(CC(C)C)cc1-c1cccc(Cn2ccnc2C(C)=O)c1` are greater than 10000 nM and 17 nM.
On the same counts, the results for `CCCCOC(=O)NS(=O)(=O)c1sc(CC(C)C)cc1-c1cccc(CN(Cc2ccccc2)C(=O)c2cccs2)c1` are greater than 10000 nM and 670 nM.
Regarding `CCCCOC(=O)NS(=O)(=O)c1sc(CC(C)C)cc1-c1cccc(CN(C(C)=O)c2ccc(C)cc2)c1`, the Ki in assay [1] was greater than 10000 nM; in assay [2], 120 nM.
Take `CCCCOC(=O)NS(=O)(=O)c1sc(CC(C)C)cc1-c1cccc(CN(C)C(C)=O)c1`: the Ki was greater than 10000 nM in assay [1] and 29 nM in assay [2].
For `CCCCOC(=O)NS(=O)(=O)c1sc(CC(C)C)cc1-c1cccc(Cn2cnc3ncccc32)c1` the same measures were greater than 10000 nM and 44 nM.
With `CCCCOC(=O)NS(=O)(=O)c1sc(CC(C)C)cc1-c1cccc(Cn2ccnc2Cl)c1`, in assay [5], the outcome was inactive. The Ki in assay [1] is greater than 10000 nM; in assay [2] it was 9.2 nM. In addition, in assay [6], the outcome was Active. Moreover, in assay [4], the inhibition result is “Active”.
Regarding `CCCCOC(=O)NS(=O)(=O)c1sc(CC(C)C)cc1-c1cccc(Cn2ccnc2-c2ccsc2)c1`, the Ki was greater than 10000 nM in assay [1] and 33 nM in assay [2].
For `CCCCOC(=O)NS(=O)(=O)c1sc(CC(C)C)cc1-c1cccc(CN(C)C(=O)OCC)c1` the same measures were greater than 10000 nM and 45 nM.
`Cc1cc(Cn2cnc3c2C[C@@H](C(=O)O)N(C(=O)C(c2ccccc2)c2ccccc2)C3)ccc1N(C)C`: the outcome in assay [7] was inactive.
As to `CCCCOC(=O)NS(=O)(=O)c1sc(CC(C)C)cc1-c1cccc(CN(Cc2ccccc2)C(C)=O)c1`, the figures for the Ki in assay [1] and in assay [2] were greater than 10000 nM and 79 nM, respectively.
On to `CCCCOC(=O)NS(=O)(=O)c1sc(CC(C)C)cc1-c1cccc(Cn2cccn2)c1`, for which the Ki was greater than 10000 nM in assay [1] and 110 nM in assay [2].
Turning to `CCCCOC(=O)NS(=O)(=O)c1sc(CC(C)C)cc1-c1cccc(CN(C)C=O)c1`, the results for the Ki in assay [1] and in assay [2] were greater than 10000 nM and 55 nM, respectively.
For `CCCCOC(=O)NS(=O)(=O)c1sc(CC(C)C)cc1-c1cccc(CN(C)C(=O)c2cccs2)c1` the same measures were greater than 10000 nM and 13 nM.
As for `CCCCOC(=O)NS(=O)(=O)c1sc(CC(C)C)cc1-c1cccc(Cn2ccnc2CC)c1`, the Ki in assay [1] was greater than 10000 nM; in assay [2], 8 nM.
As to `CCCCOC(=O)NS(=O)(=O)c1sc(CC(C)C)cc1-c1cccc(CN(CC)C(=O)c2cccs2)c1`, the Ki in assay [1] is greater than 10000 nM; in assay [2] it was 2.2 nM.
With `CCCCOC(=O)NS(=O)(=O)c1sc(CC(C)C)cc1-c1cccc(Cn2ccc(C(F)(F)F)n2)c1`, the Ki in assay [1] was greater than 10000 nM; in assay [2], 233 nM.
On the same counts, the results for `CCCCOC(=O)NS(=O)(=O)c1sc(CC(C)C)cc1-c1cccc(CN(CC(F)(F)F)C(=O)C2CC2)c1` are greater than 10000 nM and 163 nM.
Turning to `CCCCOC(=O)NS(=O)(=O)c1sc(CC(C)C)cc1-c1cccc(Cn2ccnc2-c2ccccn2)c1`, the Ki in assay [1] was greater than 10000 nM; in assay [2], 28 nM.
For `CCCCOC(=O)NS(=O)(=O)c1sc(CC(C)C)cc1-c1cccc(CN(Cc2ccccc2)C(=O)CCCC)c1` the same measures were greater than 10000 nM and 35 nM.
Regarding `CCCCOC(=O)NS(=O)(=O)c1sc(CC(C)C)cc1-c1cccc(CN(CC)S(=O)(=O)c2cccs2)c1`, the values for the Ki in assay [1] and in assay [2] were greater than 10000 nM and 133 nM, respectively.
In the case of `CCCCOC(=O)NS(=O)(=O)c1sc(CC(C)C)cc1-c1cccc(CN2CCCC2=O)c1`, the Ki in assay [1] is greater than 10000 nM; in assay [2] it was 224 nM.
On the same counts, the results for `CCCCOC(=O)NS(=O)(=O)c1sc(CC(C)C)cc1-c1cccc(CN2C(=O)CN(C)C2=O)c1` are greater than 10000 nM and 37 nM.
For `CCCCOC(=O)NS(=O)(=O)c1sc(CC(C)C)cc1-c1cccc(C(=O)Cn2cnc3ccccc32)c1`, the result in assay [5] was inactive. Besides, the inhibition constant (Ki) in assay [1] was greater than 10000 nM; in assay [2], 20 nM. Besides, in assay [6], the result was Active. The inhibition result in assay [4] was “Active”.

One may read the Ki as a measure of affinity in units of concentration, obtained from inhibition or displacement. A high value points to lower affinity.

For the origin of these results see ChEMBL document CHEMBL2086319, “From the first selective non-peptide AT(2) receptor agonist to structurally related antagonists” (J Med Chem, 2012).
